# Tests used:
# Klebsiella pneumoniae [1] = assay: Antibacterial activity against Klebsiella pneumoniae assessed as post-antibiotic sub-MIC effect at 0.3 times MIC concentration pretreated with 10 times MIC concentration for 1 hr followed by 1:1000 dilution by viable plate count method; assay type: functional
# Enterococcus faecalis [2] = assay: Antibacterial activity against vancomycin-sensitive Enterococcus faecalis assessed as sub-MIC effect at 0.2 times MIC concentration incubated for 1 hr by viable plate count method; assay type: functional
# Acinetobacter baumannii [3] = assay: Antibacterial activity against Acinetobacter baumannii by macrodilution method; assay type: functional
# Escherichia coli [4] = assay: Antibacterial activity against Escherichia coli assessed as post-antibiotic sub-MIC effect at 0.3 times MIC concentration pretreated with 10 times MIC concentration for 1 hr followed by 1:1000 dilution by viable plate count method; assay type: functional
# Acinetobacter baumannii [5] = assay: Antibacterial activity against Acinetobacter baumannii assessed as post antibiotic effect at 6 times MIC concentration incubated for 1 hr measured after 1:1000 dilution by viable plate count method; assay type: functional
# Acinetobacter baumannii [6] = assay: Antibacterial activity against multidrug-resistant Acinetobacter baumannii producing OXA-24 and OXA-51 beta-lactamases by macrodilution method; assay type: functional
# Streptococcus pneumoniae [7] = assay: Antibacterial activity against penicillin-resistant Streptococcus pneumoniae assessed as sub-MIC effect at 0.2 times MIC concentration incubated for 1 hr by viable plate count method; assay type: functional
# Staphylococcus aureus [8] = assay: Antibacterial activity against vancomycin-intermediate methicillin-resistant Staphylococcus aureus assessed as post-antibiotic sub-MIC effect at 0.4 times MIC concentration pretreated with 10 times MIC concentration for 1 hr followed by 1:1000 dilution by viable plate count method; assay type: functional
# Klebsiella pneumoniae [9] = assay: Antibacterial activity against Klebsiella pneumoniae by macrodilution method; assay type: functional
# Enterobacter cloacae [10] = assay: Antibacterial activity against Enterobacter cloacae assessed as post-antibiotic sub-MIC effect at 0.4 times MIC concentration pretreated with 10 times MIC concentration for 1 hr followed by 1:1000 dilution by viable plate count method; assay type: functional
# Staphylococcus aureus [11] = assay: Antibacterial activity against vancomycin-intermediate methicillin-resistant Staphylococcus aureus assessed as post antibiotic effect at 6 times MIC concentration incubated for 1 hr measured after 1:1000 dilution by viable plate count method; assay type: functional
# Haemophilus influenzae [12] = assay: Antibacterial activity against amoxicillin, clavulanate-resistant Haemophilus influenzae expressing beta-lactamase assessed as post-antibiotic sub-MIC effect at 0.2 times MIC concentration pretreated with 6 times MIC concentration for 1 hr followed by 1:1000 dilution by viable plate count method; assay type: functional
# Enterococcus faecalis [13] = assay: Antibacterial activity against vancomycin-sensitive Enterococcus faecalis assessed as sub-MIC effect at 0.4 times MIC concentration incubated for 1 hr by viable plate count method; assay type: functional
# Enterococcus faecalis [14] = assay: Antibacterial activity against vancomycin-resistant Enterococcus faecalis assessed as sub-MIC effect at 0.3 times MIC concentration incubated for 1 hr by viable plate count method; assay type: functional
# Acinetobacter baumannii [15] = assay: Antibacterial activity against Acinetobacter baumannii assessed as post-antibiotic sub-MIC effect at 0.2 times MIC concentration pretreated with 10 times MIC concentration for 1 hr followed by 1:1000 dilution by viable plate count method; assay type: functional
# Haemophilus influenzae [16] = assay: Antibacterial activity against amoxicillin, clavulanate-resistant Haemophilus influenzae expressing beta-lactamase assessed as post antibiotic effect at 10 times MIC concentration incubated for 1 hr measured after 1:1000 dilution by viable plate count method; assay type: functional
# Haemophilus influenzae [17] = assay: Antibacterial activity against beta-lactamase deficient ampicillin-resistant Haemophilus influenzae assessed as post-antibiotic sub-MIC effect at 0.4 times MIC concentration pretreated with 10 times MIC concentration for 1 hr followed by 1:1000 dilution by viable plate count method; assay type: functional
# [18] = Drug level in patient serum at 100 mg, iv followed by 50 mg every 12 hrs after 60 mins post dose; assay type: ADME, organism-based; conditions: human, read-out: Drug uptake
# Enterobacter cloacae [19] = assay: Antibacterial activity against Enterobacter cloacae assessed as post antibiotic effect; assay type: functional
# Acinetobacter baumannii [20] = assay: Antibacterial activity against Acinetobacter baumannii assessed as post antibiotic effect at 10 times MIC concentration incubated for 1 hr measured after 1:1000 dilution by viable plate count method; assay type: functional
# Enterobacter cloacae [21] = assay: Antibacterial activity against Enterobacter cloacae assessed as sub-MIC effect at 0.3 times MIC concentration incubated for 1 hr by viable plate count method; assay type: functional
# Streptococcus pneumoniae [22] = assay: Antibacterial activity against penicillin-resistant Streptococcus pneumoniae assessed as sub-MIC effect at 0.4 times MIC concentration incubated for 1 hr by viable plate count method; assay type: functional
# Streptococcus pneumoniae [23] = assay: Antibacterial activity against penicillin-intermediate Streptococcus pneumoniae assessed as sub-MIC effect at 0.4 times MIC concentration incubated for 1 hr by viable plate count method; assay type: functional
# Haemophilus influenzae [24] = assay: Antibacterial activity against amoxicillin, clavulanate-resistant Haemophilus influenzae expressing beta-lactamase assessed as post-antibiotic sub-MIC effect at 0.4 times MIC concentration pretreated with 6 times MIC concentration for 1 hr followed by 1:1000 dilution by viable plate count method; assay type: functional
# Haemophilus influenzae [25] = assay: Antibacterial activity against beta-lactamase deficient and ampicillin-resistant Haemophilus influenzae assessed as sub-MIC effect at 0.2 times MIC concentration incubated for 1 hr by viable plate count method; assay type: functional
# Staphylococcus aureus [26] = assay: Antibacterial activity against vancomycin-sensitive methicillin-resistant Staphylococcus aureus assessed as post-antibiotic sub-MIC effect at 0.4 times MIC concentration pretreated with 6 times MIC concentration for 1 hr followed by 1:1000 dilution by viable plate count method; assay type: functional
# Haemophilus influenzae [27] = assay: Antibacterial activity against amoxicillin, clavulanate-resistant Haemophilus influenzae expressing beta-lactamase assessed as post-antibiotic sub-MIC effect at 0.3 times MIC concentration pretreated with 10 times MIC concentration for 1 hr followed by 1:1000 dilution by viable plate count method; assay type: functional
# Enterobacter cloacae [28] = assay: Antibacterial activity against Enterobacter cloacae assessed as post-antibiotic sub-MIC effect at 0.4 times MIC concentration pretreated with 2 times MIC concentration for 1 hr followed by 1:1000 dilution by viable plate count method; assay type: functional
# Haemophilus influenzae [29] = assay: Antibacterial activity against beta-lactamase deficient and ampicillin-resistant Haemophilus influenzae assessed as post antibiotic effect at 10 times MIC concentration incubated for 1 hr measured after 1:1000 dilution by viable plate count method; assay type: functional
# Streptococcus pneumoniae [30] = assay: Antibacterial activity against penicillin-intermediate Streptococcus pneumoniae by macrodilution method; assay type: functional
# Klebsiella pneumoniae [31] = assay: Antibacterial activity against Klebsiella pneumoniae assessed as post antibiotic effect at 10 times MIC concentration incubated for 1 hr measured after 1:1000 dilution by viable plate count method; assay type: functional
# Enterobacter cloacae [32] = assay: Antibacterial activity against Enterobacter cloacae assessed as sub-MIC effect at 0.4 times MIC concentration incubated for 1 hr by viable plate count method; assay type: functional
# Escherichia coli [33] = assay: Antibacterial activity against Escherichia coli by macrodilution method; assay type: functional
# Escherichia coli [34] = assay: Antibacterial activity against Escherichia coli assessed as post-antibiotic sub-MIC effect at 0.3 times MIC concentration pretreated with 6 times MIC concentration for 1 hr followed by 1:1000 dilution by viable plate count method; assay type: functional
# Enterobacter cloacae [35] = assay: Antibacterial activity against Enterobacter cloacae assessed as post-antibiotic sub-MIC effect at 0.3 times MIC concentration pretreated with 2 times MIC concentration for 1 hr followed by 1:1000 dilution by viable plate count method; assay type: functional
# Acinetobacter baumannii [36] = assay: Antibacterial activity against multidrug-resistant Acinetobacter baumannii producing OXA-24 and OXA-51 beta-lactamases assessed as post-antibiotic sub-MIC effect at 0.4 times MIC concentration pretreated with 2 times MIC concentration for 1 hr followed by 1:1000 dilution by viable plate count method; assay type: functional
structure (smiles),measurement,setting,value
CN(C)c1cc(NC(=O)CNC(C)(C)C)c(O)c2c1C[C@H]1C[C@H]3[C@H](N(C)C)C(O)=C(C(N)=O)C(=O)[C@@]3(O)C(O)=C1C2=O [TIGECYCLINE],PAE,Klebsiella pneumoniae [1],2 h
same,PAE,Enterococcus faecalis [2],0 h
same,MIC,Acinetobacter baumannii [3],0.12 µg/mL
same,PAE,Escherichia coli [4],2.2 h
same,PAE,Acinetobacter baumannii [5],1.8 h
same,MIC,Acinetobacter baumannii [6],2 µg/mL
same,PAE,Streptococcus pneumoniae [7],0.5 h
same,PAE,Staphylococcus aureus [8],10 h
same,MIC,Klebsiella pneumoniae [9],0.25 µg/mL
same,PAE,Enterobacter cloacae [10],7.2 h
same,PAE,Staphylococcus aureus [11],4 h
same,PAE,Haemophilus influenzae [12],3.9 h
same,PAE,Enterococcus faecalis [13],1.8 h
same,PAE,Enterococcus faecalis [14],0.3 h
same,PAE,Acinetobacter baumannii [15],6.7 h
same,PAE,Haemophilus influenzae [16],3.7 h
same,PAE,Haemophilus influenzae [17],2.8 h
same,concentration at 1 h,[18],600 ng/mL
same,PAE,Enterobacter cloacae [19],2 h
same,PAE,Acinetobacter baumannii [20],2.9 h
same,PAE,Enterobacter cloacae [21],0.4 h
same,PAE,Streptococcus pneumoniae [22],0.7 h
same,PAE,Streptococcus pneumoniae [23],7.7 h
same,PAE,Haemophilus influenzae [24],7.7 h
same,PAE,Haemophilus influenzae [25],0.8 h
same,PAE,Staphylococcus aureus [26],6.9 h
same,PAE,Haemophilus influenzae [27],5.4 h
same,PAE,Enterobacter cloacae [28],6.9 h
same,PAE,Haemophilus influenzae [29],1.1 h
same,MIC,Streptococcus pneumoniae [30],0.06 µg/mL
same,PAE,Klebsiella pneumoniae [31],1.7 h
same,PAE,Enterobacter cloacae [32],2.7 h
same,MIC,Escherichia coli [33],0.12 µg/mL
same,PAE,Escherichia coli [34],2.9 h
same,PAE,Enterobacter cloacae [35],4.9 h
same,PAE,Acinetobacter baumannii [36],3 h

# Reference: ChEMBL document CHEMBL1629634, “Postantibiotic effect of tigecycline against 14 gram-positive organisms” (Antimicrob Agents Chemother, 2009)
